Patent US11827917B1, “Methods for the conversion of fermentable sugars to ethanol” (Colorado State University Research Foundation, priority 2020, dated 2023)
Marks after values point to notes of the source that are not given here.

Tests used:
S. cerevisiae JAY 270 = assay: Serum-bottle cultivation in YPD: biomass, glycerol, ethanol yields; format: cell-based, Saccharomyces cerevisiae
Description: Procedure: Cultivations in serum bottles were used to determine the effect of the best-performing screened chemicals on the ethanol yield. S. cerevisiae JAY 270 was pre-cultured in 100 mL of YPD medium in 200-mL serum bottles overnight in a shaker at 30° C. and 200 rpm. The precultured yeast cells were collected and washed twice as described above. The cell pellet was resuspended in about 10 mL of 0.8% (w/v) NaCl and the cell concentration was estimated as OD600. TyrOH, PheOH, and TrpOH were added to 30 mL of YPD medium in 100-mL serum bottles at 0.05% and 0.2% respectively. The same amount of DMSO was added to YPD medium to serve as the control for TrpOH and TyrOH treatments. The bottles were inoculated with the prepared yeast cells to obtain an initial cell concentration of OD600=0.2. The serum bottles were sealed and cultured in a shaker at 30° C. and 200 rpm for 24 h. Each condition had three biological replicates.
(§1) Analytical methods: Cell growth was evaluated by monitoring OD600 and cell dry mass concentration. For dry mass measurements, 1.0 mL of culture was transferred to a pre-dried and pre-weighed 2-mL centrifuge tube. The tubes were centrifuged for 10 min at 14000 rpm using a microcentrifuge, and then the cell pellets were dried in an oven for 3 days at 65° C. The cell dry mass was determined by subtracting the initial tube mass from the dried mass of tube with cells. The concentrations of glucose, ethanol, and glycerol were measured via HPLC (Shimadzu LC20A series) outfitted with a refractive index detector and using an Aminex HPX-87H (300×7.8 mm) organic acid column and Cation H+ guard cartridge (Bio Rad Laboratories, Hercules, CA). The column was maintained at 65° C. and the mobile phase was 5 mM sulfuric acid with a flow rate of 0.6 mL/min. Standard compound solutions were used to calibrate the HPLC. Each sample was analyzed three times by HPLC.

S. cerevisiae JAY 238 = assay: Serum-bottle cultivation in YPD, different yeast strains; format: cell-based, Saccharomyces cerevisiae; conditions: 0.2%
Description: as §1
(§2) Procedure: Seven yeast strains (S. cerevisiae ATCC 26603, S. cerevisiae JAY 238, S. cerevisiae JAY 240, S. cerevisiae JAY 241, S. paradoxus JAY 1502, S. kudriavzezii JAY 1503, and S. mikatae JAY 1504) were pre-cultured in 30 mL of YPD medium in 100 mL serum bottle overnight in a shaker at 30° C. and 200 rpm. The precultured yeast cells of each strains were collected and washed twice. Finally, the cell pellet was resuspended in about 10 mL 0.8% (w/v) NaCl and the OD600 measured. TyrOH, PheOH, and TrpOH were added to 30 mL of YPD medium in 100-mL serum bottles at 0.2% (w/v) respectively. The same amount of DMSO was added in YPD medium and served as control to the TrpOH and TyrOH treatments. The prepared yeast cells were added to obtain the initial cell concentration at OD600=0.2. The serum bottles were sealed and cultured in a shaker at 30° C. and 200 rpm for 24 h. There were three biological replicates for each treatment.

S. kudriavzezii JAY 1503 = assay: as above; format: cell-based; conditions: 0.2%
Description: as §1, §2

S. mikatae JAY 1504 = assay: as above; format: cell-based; conditions: 0.2%
Description: as §1, §2

S. paradoxus JAY 1502 = assay: as above; format: cell-based; conditions: 0.2%
Description: as §1, §2

[1] = 0.05% (w/v), YPD, serum bottles
[2] = S. cerevisiae JAY 238, YPD (Table 9B)
[3] = S. paradoxus JAY 1502, YPD (Table 9B)

OCCc1c[nH]c2ccccc12 [TrpOH, tryptophol]
Biomass Yield (S. cerevisiae JAY 270; [1]): 0.078 + 0.001 g/g
Biomass yield % change vs. control (S. cerevisiae JAY 270; [1]): −22* %
EtOH yield (S. cerevisiae JAY 270; [1]): 0.41 ± 0.01 g/g
EtOH yield % change vs. control (S. cerevisiae JAY 270; [1]): 7.9* %
Glycerol yield (S. cerevisiae JAY 270; [1]): 0.027 ± 0.001 g/g
Glycerol yield % change vs. control (S. cerevisiae JAY 270; [1]): −20* %
Biomass yield vs. reference (S. cerevisiae JAY 270; 0.05%, YPD, serum bottles): −22.0%
Ethanol yield (S. cerevisiae JAY 270; 0.05%, YPD, serum bottles): 0.41 ± 0.01 g/g
Ethanol yield vs. reference (S. cerevisiae JAY 270; 0.05%, YPD, serum bottles): 7.9%
Glycerol yield (S. cerevisiae JAY 270; 0.05%, YPD, serum bottles): 0.027 ± 0.001 g/g
Glycerol yield vs. reference (S. cerevisiae JAY 270; 0.05%, YPD, serum bottles): −19.6%
OD600 (S. cerevisiae JAY 270; 0.05%, YPD, serum bottles): 3.01
Effect on yeast cell growth (S. cerevisiae JAY 270; 0.2%): reduced yeast cell growth
Biomass Yield (S. cerevisiae JAY 270; 0.2% (w/v), YPD, serum bottles): 0.042 + 0.006 g/g
Biomass yield % change vs. control (S. cerevisiae JAY 270; 0.2% (w/v), YPD, serum bottles): −58* %
EtOH yield (S. cerevisiae JAY 270; 0.2% (w/v), YPD, serum bottles): 0.41 ± 0.01 g/g
EtOH yield % change vs. control (S. cerevisiae JAY 270; 0.2% (w/v), YPD, serum bottles): 10* %
Glycerol yield (S. cerevisiae JAY 270; 0.2% (w/v), YPD, serum bottles): 0.027 ± 0.009 g/g
Glycerol yield % change vs. control (S. cerevisiae JAY 270; 0.2% (w/v), YPD, serum bottles): −22* %
Biomass yield vs. reference (S. cerevisiae JAY 270; 0.2%, YPD, serum bottles): −58.2%
Effect on ethanol yield (S. cerevisiae JAY 270; 0.2%, YPD, serum bottles): increased the ethanol yield significantly
Ethanol yield (S. cerevisiae JAY 270; 0.2%, YPD, serum bottles): 0.41 ± 0.01 g/g
Ethanol yield vs. reference (S. cerevisiae JAY 270; 0.2%, YPD, serum bottles): 10.3%
Glycerol yield (S. cerevisiae JAY 270; 0.2%, YPD, serum bottles): 0.027 ± 0.009 g/g
Glycerol yield vs. reference (S. cerevisiae JAY 270; 0.2%, YPD, serum bottles): −21.9%
OD600 (S. cerevisiae JAY 270; 0.2%, YPD, serum bottles): 1.52
Biomass Yield (S. cerevisiae JAY 238; S. cerevisiae JAY 238): 0.060 ± 0.000 g/g
Biomass yield % change vs. control (S. cerevisiae JAY 238; S. cerevisiae JAY 238): −12* %
EtOH yield (S. cerevisiae JAY 238; S. cerevisiae JAY 238): 0.482 ± 0.017 g/g
Glycerol yield (S. cerevisiae JAY 238; S. cerevisiae JAY 238): 0.023 ± 0.002 g/g
Glycerol yield % change vs. control (S. cerevisiae JAY 238; S. cerevisiae JAY 238): −49* %
Glycerol yield decrease from control (S. cerevisiae JAY 238; S. cerevisiae JAY 238): 42%
DCW (S. cerevisiae JAY 238; S. cerevisiae JAY 238, YPD): 1.30 mg
DCW Δ vs. ref (S. cerevisiae JAY 238; S. cerevisiae JAY 238, YPD): 46.4%
OD600 (S. cerevisiae JAY 238; S. cerevisiae JAY 238, YPD): 0.39
OD600 Δ vs. ref (S. cerevisiae JAY 238; S. cerevisiae JAY 238, YPD): 16.7%
Biomass Yield (S. cerevisiae JAY 238; [2]): 0.060 + 0.000 g/g
Biomass yield Δ vs. ref (S. cerevisiae JAY 238; [2]): −11.8%
Ethanol yield (S. cerevisiae JAY 238; [2]): 0.482 ± 0.017 g/g
Ethanol yield Δ vs. ref (S. cerevisiae JAY 238; [2]): 14.7%
Glycerol yield (S. cerevisiae JAY 238; [2]): 0.020 ± 0.002 g/g
Glycerol yield Δ vs. ref (S. cerevisiae JAY 238; [2]): −48.90%
Cell growth (S. kudriavzezii JAY 1503; S. kudriavzezii JAY 1503): very low cell growth
DCW (S. kudriavzezii JAY 1503; S. kudriavzezii JAY 1503, YPD): 0.48 mg
DCW Δ vs. ref (S. kudriavzezii JAY 1503; S. kudriavzezii JAY 1503, YPD): 18.6%
OD600 (S. kudriavzezii JAY 1503; S. kudriavzezii JAY 1503, YPD): 0.16
OD600 Δ vs. ref (S. kudriavzezii JAY 1503; S. kudriavzezii JAY 1503, YPD): 9.9%
Cell growth (S. mikatae JAY 1504; S. mikatae JAY 1504): very low cell growth
DCW (S. mikatae JAY 1504; S. mikatae JAY 1504, YPD): 1.45 mg
DCW Δ vs. ref (S. mikatae JAY 1504; S. mikatae JAY 1504, YPD): 43.3%
OD600 (S. mikatae JAY 1504; S. mikatae JAY 1504, YPD): 0.64
OD600 Δ vs. ref (S. mikatae JAY 1504; S. mikatae JAY 1504, YPD): 28.1%
Biomass Yield (S. paradoxus JAY 1502; S. paradoxus JAY 1502): 0.038 ± 0.001 g/g
Biomass yield % change vs. control (S. paradoxus JAY 1502; S. paradoxus JAY 1502): −42* %
EtOH yield (S. paradoxus JAY 1502; S. paradoxus JAY 1502): 0.417 ± 0.056 g/g
EtOH yield % change vs. control (S. paradoxus JAY 1502; S. paradoxus JAY 1502): +7.2* %
Glycerol yield increase from control (S. paradoxus JAY 1502; S. paradoxus JAY 1502): 71%
DCW (S. paradoxus JAY 1502; S. paradoxus JAY 1502, YPD): 1.40 mg
DCW Δ vs. ref (S. paradoxus JAY 1502; S. paradoxus JAY 1502, YPD): 52.8%
OD600 (S. paradoxus JAY 1502; S. paradoxus JAY 1502, YPD): 0.40
OD600 Δ vs. ref (S. paradoxus JAY 1502; S. paradoxus JAY 1502, YPD): 18.0%
Biomass Yield (S. paradoxus JAY 1502; [3]): 0.038 + 0.001 g/g
Biomass yield Δ vs. ref (S. paradoxus JAY 1502; [3]): −42.0%
Ethanol yield (S. paradoxus JAY 1502; [3]): 0.417 ± 0.056 g/g
Ethanol yield Δ vs. ref (S. paradoxus JAY 1502; [3]): 7.2%
